Like-named read-outs stand apart in the source and are kept apart here.
Tests used:
[1] = system: K562-TAX; assay: Cytostatic/cytotoxic MTT assay, K562-TAX; assay type: cell-based; settings: Homo sapiens, 72 h, read-out: MTT, IC50 K562-TAX
Description: Unless otherwise stated, all cells were purchased from the […] (ATCC). The CCRF-CEM line is derived from T lymphoblastic leukemia, evincing high chemosenzitivity, K562 represent cells from a […] patient sample with bcr-abl translocation, HCT116 is colorectal tumor cell line and its p53 gene knock-down counterpart (HCT116p53−/−, Horizon Discovery, UK) is a model of human cancers with p53 inactivation frequently associated with poor prognosis, A549 cell line is lung adenocarcinoma. The daunorubicin resistant subline of CCRF-CEM cells (CEM-DNR bulk) and paclitaxel resistant subline K562-TAX were selected in our laboratory by cultivation of maternal cell lines in increasing concentrations of daunorubicine or paclitaxel, respectively. The CEM-DNR cells overexpress mrp-1 and mdr-1 genes, while K562-TAX cells overexpress mdr-1 only. Both proteins belong to the family of ABC transporters and are involved in the primary and/or acquired multidrug resistance phenomenon (ref.: Gottesman, M. M.; Fojo, T.; Bates, S. E. Multidrug resistance in cancer: role of ATP-dependent transporters. Nat. Rev. Cancer. 2002, 2, 48-58. (b) Noskova, V.; Dzubak, P.; Kuzmina, G.; Ludkova, A.; Stehlik, D.; Trojanec, R.; Janostakova, A.; Korinkova, G.; Mihal, V.; Hajduch, M. In vitro chemoresistance profile and expression/function of MDR associated proteins in resistant cell lines derived from CCRF-CEM, K562, A549 and MDA MB 231 parental cells. Neoplasma 2002, 49, 418-425). Non-malignant MRC-5 and BJ cells, derived from normal human fibroblasts, were used as controls. The cells were maintained in Nunc/Corning 80 cm^2 plastic tissue culture flasks and cultured in cell culture medium (DMEM/RPMI 1640 with 5 g/L glucose, 2 mM glutamine, 100 U/mL penicillin, 100 µg/mL streptomycin, 10% fetal calf serum, and NaHCO3). Cell suspensions were prepared and diluted according to the particular cell type and the expected target cell density (25,000-30,000 cells/well based on cell growth characteristics). Cells were added by pipette (80 L) into 96-well microtiter plates. Inoculates were allowed a pre-incubation period of 24 h at 37° C. and 5% CO2 for stabilization. Four-fold dilutions, in 20-L aliquots, of the intended test concentration were added to the microtiter plate walls at time zero. All test compound concentrations were examined in duplicate. Incubation of the cells with the test compounds lasted for 72 h at 37° C., in a 5% CO2 atmosphere at 100% humidity. At the end of the incubation period, the cells were assayed using MTT. Aliquots (10 L) of the MTT stock solution (5 mg/ml) were pipetted into each well and incubated for another 1-4 h. After this incubation period the formazan produced was dissolved by addition of 100 µL/well of 10% aq SDS (pH 5.5), followed by a further incubation at 37° C. overnight. The optical density was measured at 540 nm. The IC50 value, the drug concentration inhibiting the cell growth by 50%, was calculated from appropriate dose-response curves.
In vitro cytotoxic/cytostatic activity final nucleosides 1-5 was initially evaluated against […] cell lines derived from human solid tumors including lung (A549 cells) and colon (HCT116 and HCT116p53−/−) carcinomas, as well as leukemia cell lines (CCRF-CEM, CEM-DNR, K562 and K562-TAX) and, for comparison, non-malignant BJ and MRC-5 fibroblasts. Concentrations inhibiting the cell growth by 50% (IC50) were determined using a quantitative metabolic staining with 3-(4,5-dimethylthiazol-2-yl)-2,5-diphenyltetrazolium bromide (MTT) (ref.: Denizot, F.; Lang, R. Rapid colorimetric assay for cell growth and survival: Modifications to the tetrazolium dye procedure giving improved sensitivity and reliability. J. Immunol. Meth. 1986, 89, 271-277) following a 3-day treatment.
Multidrug resistance is a major therapeutic problem in cancer chemotherapy. […]

| Compound | IC50 ([1]; paclitaxel resistant subline) [µM] | melting point [°C] | IC50 [1] [µM] |
| --- | --- | --- | --- |
| C#Cc1cn([C@@H]2O[C@H](CO)[C@@H](O)[C@H]2O)c2ncnc(C)c12 [Compound 5g, 5-Ethynyl-4-methyl-7-(β-D-ribofuranosyl)-7H-pyrrolo[2,3-d]pyrimidine] | 0.11 | – | – |
| CSc1ncnc2c1c(-c1ccoc1)cn2[C@@H]1O[C@H](CO)[C@@H](O)[C@H]1O [Compound 2b, 5-(Furan-3-yl)-4-methylsulfanyl-7-(β-D-ribofuranosyl)-7H-pyrrolo[2,3-d]pyrimidine] | 3.25 | 121 to 124 | – |
| CN(C)c1ncnc2c1c(-c1cc3ccccc3o1)cn2[C@@H]1O[C@H](CO)[C@@H](O)[C@H]1O [Compound 4f, 5-(Benzofuran-2-yl)-4-dimethylamino-7-(β-D-ribofuranosyl)-7H-pyrrolo[2,3-d]pyrimidine] | > 20 | – | – |
| CN(C)c1ncnc2c1c(-c1ccoc1)cn2[C@@H]1O[C@H](CO)[C@@H](O)[C@H]1O [Compound 4b, 4-Dimethylamino-5-(furan-3-yl)-7-(β-D-ribofuranosyl)-7H-pyrrolo[2,3-d]pyrimidine] | 14.9 | 94 to 97 | – |
| COc1ncnc2c1c(-c1cc3ccccc3o1)cn2[C@@H]1O[C@H](CO)[C@@H](O)[C@H]1O [Compound 1f, 5-(Benzofuran-2-yl)-4-methoxy-7-(β-D-ribofuranosyl)-7H-pyrrolo[2,3-d]pyrimidine] | 13.1 | – | – |
| CN(C)c1ncnc2c1ccn2[C@@H]1O[C@H](CO)[C@@H](O)[C@H]1O [RC4, reference compound] | 0.89 | – | – |
| CNc1ncnc2c1ccn2[C@@H]1O[C@H](CO)[C@@H](O)[C@H]1O [RC3, reference compound] | 0.92 | – | – |
| C#Cc1cn([C@@H]2O[C@H](CO)[C@@H](O)[C@H]2O)c2ncnc(OC)c12 [Compound 1g, 5-Ethynyl-4-methoxy-7-(β-D-ribofuranosyl)-7H-pyrrolo[2,3-d]pyrimidine] | 0.38 | – | – |
| COc1ncnc2c1ccn2[C@@H]1O[C@H](CO)[C@@H](O)[C@H]1O [RC1, reference compound] | > 20 | – | – |
| Cc1ncnc2c1ccn2[C@@H]1O[C@H](CO)[C@@H](O)[C@H]1O [RC5, 4-Methyl-7-(β-D-ribofuranosyl)-7H-pyrrolo[2,3-d]pyrimidine, reference compound] | – | – | 0.05 |
| CSc1ncnc2c1c(-c1cccs1)cn2[C@@H]1O[C@H](CO)[C@@H](O)[C@H]1O [Compound 2c, 4-Methylsulfanyl-7-(β-D-ribofuranosyl)-5-(thiophen-2-yl)-7H-pyrrolo[2,3-d]pyrimidine] | > 20 | – | – |
| Cc1ncnc2c1c(-c1cc3ccccc3o1)cn2[C@@H]1O[C@H](CO)[C@@H](O)[C@H]1O [Compound 5f, 5-(Benzofuran-2-yl)-4-methyl-7-(β-D-ribofuranosyl)-7H-pyrrolo[2,3-d]pyrimidine] | > 20 | – | – |
| CN(C)c1ncnc2c1c(-c1ccccc1)cn2[C@@H]1O[C@H](CO)[C@@H](O)[C@H]1O [Compound 4e, 4-Dimethylamino-5-phenyl-7-(β-D-ribofuranosyl)-7H-pyrrolo[2,3-d]pyrimidine] | > 20 | – | – |
| CSc1ncnc2c1c(-c1ccccc1)cn2[C@@H]1O[C@H](CO)[C@@H](O)[C@H]1O [Compound 2e, 4-Methylsulfanyl-5-phenyl-7-(β-D-ribofuranosyl)-7H-pyrrolo[2,3-d]pyrimidine] | > 20 | 169 to 170 | – |
| Cc1ncnc2c1c(-c1ccccc1)cn2[C@@H]1O[C@H](CO)[C@@H](O)[C@H]1O [Compound 5e, 4-Methyl-5-phenyl-7-(β-D-ribofuranosyl)-7H-pyrrolo[2,3-d]pyrimidine] | > 20 | – | – |
| CN(C)c1ncnc2c1c(-c1cccs1)cn2[C@@H]1O[C@H](CO)[C@@H](O)[C@H]1O [Compound 4c, 4-Dimethylamino-7-(β-D-ribofuranosyl)-5-(thiophen-2-yl)-7H-pyrrolo[2,3-d]pyrimidine] | > 20 | – | – |
| COc1ncnc2c1c(-c1ccccc1)cn2[C@@H]1O[C@H](CO)[C@@H](O)[C@H]1O [Compound 1e, 4-Methoxy-5-phenyl-7-(β-D-ribofuranosyl)-7H-pyrrolo[2,3-d]pyrimidine] | > 20 | 117 to 120 | – |
| CNc1ncnc2c1c(-c1ccoc1)cn2[C@@H]1O[C@H](CO)[C@@H](O)[C@H]1O [Compound 3b, 5-(Furan-3-yl)-4-methylamino-7-(β-D-ribofuranosyl)-7H-pyrrolo[2,3-d]pyrimidine] | > 20 | 90 to 97 | – |
| CSc1ncnc2c1c(-c1ccsc1)cn2[C@@H]1O[C@H](CO)[C@@H](O)[C@H]1O [Compound 2d, 4-Methylsulfanyl-7-(β-D-ribofuranosyl)-5-(thiophen-3-yl)-7H-pyrrolo[2,3-d]pyrimidine] | > 20 | 192 to 193 | – |
| Cc1ncnc2c1c(-c1cccs1)cn2[C@@H]1O[C@H](CO)[C@@H](O)[C@H]1O [Compound 5c, 4-Methyl-7-(β-D-ribofuranosyl)-5-(thiophen-2-yl)-7H-pyrrolo[2,3-d]pyrimidine] | > 20 | 110 to 111 | – |
| Cc1ncnc2c1c(-c1ccco1)cn2[C@@H]1O[C@H](CO)[C@@H](O)[C@H]1O [Compound 5a, 5-(Furan-2-yl)-4-methyl-7-(β-D-ribofuranosyl)-7H-pyrrolo[2,3-d]pyrimidine] | 0.11 | – | – |
| CNc1ncnc2c1c(-c1ccccc1)cn2[C@@H]1O[C@H](CO)[C@@H](O)[C@H]1O [Compound 3e, 4-Methylamino-5-phenyl-7-(β-D-ribofuranosyl)-7H-pyrrolo[2,3-d]pyrimidine] | > 20 | 149 to 153 | – |
| CSc1ncnc2c1ccn2[C@@H]1O[C@H](CO)[C@@H](O)[C@H]1O [RC2, reference compound] | – | – | 0.1 |
| CNc1ncnc2c1c(-c1ccsc1)cn2[C@@H]1O[C@H](CO)[C@@H](O)[C@H]1O [Compound 3d, 4-Methylamino-7-(β-D-ribofuranosyl)-5-(thiophen-3-yl)-7H-pyrrolo[2,3-d]pyrimidine] | > 20 | 135 to 138 | – |
| C#Cc1cn([C@@H]2O[C@H](CO)[C@@H](O)[C@H]2O)c2ncnc(NC)c12 [Compound 3g, 5-Ethynyl-4-methylamino-7-(β-D-ribofuranosyl)-7H-pyrrolo[2,3-d]pyrimidine] | 1.38 | – | – |
| C#Cc1cn([C@@H]2O[C@H](CO)[C@@H](O)[C@H]2O)c2ncnc(SC)c12 [Compound 2g, 5-Ethynyl-4-methylsulfanyl-7-(β-D-ribofuranosyl)-7H-pyrrolo[2,3-d]pyrimidine] | 0.07 | – | – |
| CSc1ncnc2c1c(I)cn2[C@@H]1O[C@H](CO)[C@@H](O)[C@H]1O [Compound 2h, 5-Iodo-4-methylsulfanyl-7-(β-D-ribofuranosyl)-7H-pyrrolo[2,3-d]pyrimidine] | 7.73 | 217 to 219 | – |
| CSc1ncnc2c1c(-c1cc3ccccc3o1)cn2[C@@H]1O[C@H](CO)[C@@H](O)[C@H]1O [Compound 2f, 5-(Benzofuran-2-yl)-4-methylsulfanyl-7-(β-D-ribofuranosyl)-7H-pyrrolo[2,3-d]pyrimidine] | > 20 | – | – |
| Cc1ncnc2c1c(-c1ccoc1)cn2[C@@H]1O[C@H](CO)[C@@H](O)[C@H]1O [Compound 5b, 5-(Furan-3-yl)-4-methyl-7-(β-D-ribofuranosyl)-7H-pyrrolo[2,3-d]pyrimidine] | > 20 | – | – |
| Cc1ncnc2c1c(-c1ccsc1)cn2[C@@H]1O[C@H](CO)[C@@H](O)[C@H]1O [Compound 5d, 4-Methyl-7-(β-D-ribofuranosyl)-5-(thiophen-3-yl)-7H-pyrrolo[2,3-d]pyrimidine] | 5.55 | – | – |

Source: patent US9586986B2, “Substituted 7-deazapurine ribonucleosides for therapeutic uses” (Institute of Organic Chemistry and Biochemistry ASCR, v.v.i., priority 2014, dated 2017)
